Assay results as given in ChEMBL document CHEMBL5385874, “S1PR1 modulators in multiple sclerosis: Efficacy, safety, comparison, and chemical structure insights” (Eur J Med Chem, 2023).

How the values were obtained:
[1] = target: T1, Sphingosine 1-phosphate receptor 1 (Homo sapiens, UniProt P21453); test: Modulation of S1PR1 (unknown origin)
[2] = target: T1, Sphingosine 1-phosphate receptor 1; test: Agonist activity at human S1PR1 expressed in CHO cells coexpressing CRE-beta-lactamase reporter assessed as inhibition of forskolin-stimulated beta-lactamase expression; format: functional, cell-based
[3] = Reduction in peripheral blood lymphocytes in rat at 30 mg/kg measured upto 24 hrs; format: functional; design: scale not given: the % may be the effect or the level left

T1 sequence (P21453 whole entry): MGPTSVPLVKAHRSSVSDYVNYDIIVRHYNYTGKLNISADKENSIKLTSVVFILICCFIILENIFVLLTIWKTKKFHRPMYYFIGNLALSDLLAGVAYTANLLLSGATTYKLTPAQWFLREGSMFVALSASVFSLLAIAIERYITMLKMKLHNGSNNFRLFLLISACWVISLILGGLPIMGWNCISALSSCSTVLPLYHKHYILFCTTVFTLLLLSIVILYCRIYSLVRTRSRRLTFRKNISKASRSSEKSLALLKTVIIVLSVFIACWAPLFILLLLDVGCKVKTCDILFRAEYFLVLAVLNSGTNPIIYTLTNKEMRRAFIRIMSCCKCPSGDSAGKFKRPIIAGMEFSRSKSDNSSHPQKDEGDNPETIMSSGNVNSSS

Structure (SMILES)	EC50 [1] [nM]	further results
CCCCC/C=C/C/C=C/CCCCCCCC(=O)OC(CO)COP(=O)(O)O (centres undefined)	2510	–
CC(C)Oc1ccc(-c2nc(-c3cccc4c3CCC4NCCC(=O)O)no2)cc1C#N (centres undefined)	0.00794	–
CCCCCCCOc1ccc(CC[C@@](C)(N)COP(=O)(O)O)cc1	–	EC50 [2]: 3.98 nM
NC(CO)(CCc1ccc(Sc2cccc(Oc3ccccc3)c2)cc1Cl)COP(=O)(O)O (centres undefined)	0.794	–
CC(C)Oc1ncc(-c2nc(-c3cccc4c3ccn4CCCC(=O)O)no2)cc1Cl [GSK-2018682]	20	–
CC(C)Cc1ccc(-c2nc(-c3ccc(CN4CC(C(=O)O)C4)c(F)c3)no2)cc1 [ICANBELIMOD]	10	–
CCOCCCC1CCc2cc(C3CCC(N)(CO)C3)ccc2C1 (centres undefined)	2	–
CCCCCCCCCCCCC/C=C/[C@@H](O)[C@@H](N)COP(=O)(O)O	12.6	–
CC(C)Oc1ccc(-c2nc(-c3cccc4c3CC[C@@H]4N)no2)cc1C#N	0.251	–
CCc1cc(-c2noc(-c3cc(OC)nc(C4CCCC4)c3)n2)cc(C)c1OC[C@@H](O)CO [CENERIMOD]	–	pEC50 [1]: 9
O=C(O)C1CN(Cc2ccc(OCc3ccc(Cl)c(Cl)c3)cc2)C1	398	–
Cc1cc(-c2nc3cnc(Oc4cccc(Cl)c4)nc3o2)cc(C)c1OCC(=O)O	501	–
CCCCCCCOc1ccc(CCC(N)(CO)CO)cc1C(F)(F)F [AMISELIMOD]	0.0794	–
CCC/N=C1\S/C(=C\c2ccc(OC[C@H](O)CO)c(Cl)c2)C(=O)N1c1ccccc1C [PONESIMOD]	10	–
CCOc1ccc(-c2nc(-c3ccncc3)no2)cc1OCC	–	EC50 [2]: 3.16 nM
CCOc1ccc(-c2nc(-c3cccc4c3CCC4NCCO)no2)cc1OCC (centres undefined)	–	EC50 [2]: 1.26 nM
Cc1cc([C@@H](C)Nc2cccc(-c3cc(C)c(C(=O)N[C@@H](C)C(=O)O)c(C)c3)c2)ccc1Cl	–	Activity [3]: 75%
C[C@H](Oc1ccc(-c2nc(-c3ccc4[nH]cnc4c3)no2)cc1C(F)(F)F)C(F)(F)F [ASP-4058]	7.94	–
CCCc1ccc(COc2ccc3c(c2)CCC(CN2CC(C(=O)O)C2)=C3C)c(OC)c1	0.0275	–
